Tests used:
rodents = settings: in rodents; cited from earlier work
man = settings: in man; cited from earlier work
K562 = experiment: In vitro chemosensitivity, microtetrazolium (MTT) assay, K562; assay type: cell-based; settings: K562 human chronic myelogenous leukaemia, concentration reducing growth rate by 50% of untreated control
Procedure: (§1) The cytotoxic properties of selected examples were evaluated against a panel of established human tumour cell lines.
(§2) K562--a human chronic myelogenous leukaemia (Lozzio and Lozzio, 1975). HRT--18--a human primary adenocarcinoma from the human rectum (Tompkins et al, 1974).
(§3) Chemosensitivity in vitro was assessed using the microtetrazolium assay (MTT assay) (Twentyman & Luscombe, 1987).
(§4) Examples were soluble in 5% ethanol/saline. To each well, 20 μl of drug solution was added to give a final drug concentration of 0.1-100 μg/ml at four log increments. Solvent controls were used throughout, and the first row of each plate contained media plus drug in the absence of any cells. Each point is the result of three separate experiments and cytotoxic effects are expressed in terms of percent survival, taking the optical density of the control plates to represent 100% survival.
(§5) IC50 values are the average concentrations of drug required to reduce the growth rate by 50% of the untreated control system.

HCLO = experiment: In vitro chemosensitivity, microtetrazolium (MTT) assay, HCLO; assay type: cell-based, human; settings: concentration reducing growth rate by 50% of untreated control
Procedure: as §1
(§6) HT-29 primary adenocarcinomas of the human colon.
as §3, §4, §5

HRT-18 = experiment: In vitro chemosensitivity, microtetrazolium (MTT) assay, HRT-18; assay type: cell-based; settings: HRT-18 human rectum adenocarcinoma, concentration reducing growth rate by 50% of untreated control
Procedure: as §1, §2, §3, §4, §5

HT-29 = experiment: In vitro chemosensitivity, microtetrazolium (MTT) assay, HT-29; assay type: cell-based; settings: HT-29 human colon adenocarcinoma, concentration reducing growth rate by 50% of untreated control
Procedure: as §1, §6, §3, §4, §5

DLD-1 = experiment: In vitro chemosensitivity, microtetrazolium (MTT) assay, DLD-1; assay type: cell-based; settings: DLD-1 human colon adenocarcinoma, concentration reducing growth rate by 50% of untreated control
Procedure: as §1, §6, §3, §4, §5

| Structure (SMILES) | maximum dose (rodents) [mg/kg] | maximum dose (man) [mg/kg] | IC50 (K562) [µM] | IC50 (HCLO) [µM] | IC50 (HRT-18) [µM] | IC50 (HT-29) [µM] | IC50 (DLD-1) [µM] | IC50 (HCLO; Homo sapiens) [µM] |
| --- | --- | --- | --- | --- | --- | --- | --- | --- |
| COc1cccc2c1C(=O)c1c(O)c3c(c(O)c1C2=O)C[C@@](O)(C(=O)CO)C[C@@H]3O[C@H]1C[C@H](N)[C@H](O)[C@H](C)O1 [doxorubicin] | 5 | 1 to 2 | – | – | – | – | – | – |
| CSCC[C@H](N)C(=O)NCCCNc1cccc2c1C(=O)c1ccccc1C2=O [Example 12] | – | – | 17.2 | 11.8 | 10.4 | 7.8 | 4.1 | – |
| N[C@H](Cc1ccccc1)C(=O)NCCCCNc1cccc2c1C(=O)c1ccccc1C2=O [Example 20, 1-[(4-D-phenylalanylaminobutyl)amino]-anthracene-9,10-dione] | – | – | 22.8 | – | 16.8 | 14.2 | 8.6 | 21.4 |
| CC(C)(C)OC(=O)N[C@H](Cc1ccccc1)C(=O)NCCCNc1cccc2c1C(=O)c1ccccc1C2=O [Example 18, 1-[(3-N-tertiarybutoxycarbonyl-D-phenylalanylamino-propyl)amino]-anthracene-9,10-dione] | – | – | 19.8 | 17.4 | 7.7 | 2.5 | 13.2 | – |
| N[C@@H](Cc1ccc(O)cc1)C(=O)NCCCNc1cccc2c1C(=O)c1ccccc1C2=O [Example 15, 1-[3-(L-tyrosinylaminopropyl)amino]-anthracene-9,10-dione] | – | – | 14.2 | 6.7 | 3 | 0.6 | 2.1 | – |

— patent US5733880A, “Anthracene derivatives for use as anticancer agents” (Napier University Ventures Limited, priority 1993, dated 1998)
